This is an account of results in PMC7962978, “PSMA-D4 Radioligand for Targeted Therapy of Prostate Cancer: Synthesis, Characteristics and Preliminary Assessment of Biological Properties” (International Journal of Molecular Sciences, 2021).

SMILES strings stand for the structures. Read-outs that look alike come from different tables or passages of the source.

Data set [1] addresses T1, PSMA antigen (Homo sapiens, UniProt Q04609).
T1 construct: PSMA antigen expressed on LNCaP cell membranes; endogenous in cells; host or cells: LNCaP cell membranes (PC3 membranes as PSMA-negative control)
The data set can be described thus: Competitive binding assay on LNCaP cell membranes with [^177Lu]Lu-PSMA-617 as radioligand. As to conditions: radioligand [^177Lu]Lu-PSMA-617, 2 h incubation. The method, then:
The half-maximal inhibitory concentration (IC50) of PSMA-D4 was determined in a competitive binding assay carried out on 96-well MuliScreen filter plates using LNCaP cell membranes (50 mcL) incubated with [^177Lu]Lu-PSMA-617 as a radioligand and ten different concentrations (2.4–9708 nM) of PSMA-D4. After 2 h incubation, plates were treated in the same way as in the saturation binding assay. The amount of bound radioactivity was measured in γ-counter. IC50 value was evaluated using GraphPad Prism software (Darmstadt, Germany).

The test system of the next data set is LNCaP cells. The data set can be described thus: Cell uptake (total binding) and internalization in LNCaP cells. It counts as cell-based, human. As to conditions: 37 °C, 2 h. How it is done:
To determine cell uptake and internalization of [^177Lu]Lu-PSMA-D4 and [^90Y]Y-PSMA-D4, LNCaP cells (5 × 10^5 cells well^−1) were incubated in un-supplemented RPMI 1640 medium with one concentration of tested radioligands on 12-well plates in 37 °C per 2 h. After the appropriate time, the medium was removed, and cells were washed twice using phosphate buffer saline (PBS, IITD PAN, Wroclaw, Poland). The cells were treated twice with 1 mL of 50 mM glycine in 0.1 M NaCl at a pH of 2.8 and incubated for 5 min at room temperature to collect extracellularly bound compound. The internalization was determined by measuring the radioactivity of 1mL of 1 M NaOH used for cell lysis. Total binding was calculated as a sum of the membrane and internalized fractions measured using Wallac Wizard 1470 γ counter. As a control, [^177Lu]Lu-PSMA-617 and [^68Ga]Ga-PSMA-11 were used.

Another data set has as its system mCRPC patients. The arrangement: method as in PMID 32172798, PMID 31418764, PMID 32290196. As to conditions: four clinical studies, approximately 150 mCRPC patients; cited from earlier work.
The test system of the next data set is PSMA. Set-up: method as in earlier work. The conditions noted are these: ref 34 (Tönnesmann R et al.); cited from earlier work.
Data set [2] deals with PC-3 PIP (PSMA positive) tumor-bearing mice. The arrangement: method as in PMID 28102507. As to conditions: PC-3 PIP tumor, 2 h p.i.v., 1 nmol, BALB/c Nude mice; cited from earlier work.
Data set [3] is described as follows: Lipophilicity determination (logD), shake-flask method. Format: physicochemical. The conditions noted are these: n-octanol / PBS pH 7.4, shake-flask. How it is done: The partition coefficient logD of the radioligands was determined by the shake-flask method. The solution of 10 to 50 MBq of radiolabeled PSMA ligands (D-4, 617, 11, I&T) in 1.0 mL of phosphate-buffered saline (PBS, pH 7.4) was added to 1.0 mL of presaturated n-octanol solution (n = 3). Vials were shaken vigorously for 10 min. To achieve quantitative phase separation, the vials were centrifuged at 1600 rpm for 5 min. The radioactivity concentration in a defined volume of both the aqueous and the organic phase in six replicates each was measured in a γ-counter (Wizard 1470, Wallac, Turku, Finland). The partition coefficient was calculated as the logarithm of the ratio between counts per minute (cpm) measured in the n-octanol phase to the PBS phase counts.

The target in data set [4] is T1, PSMA antigen. Briefly: Saturation radioligand binding assay on LNCaP (PSMA positive) and PC3 (PSMA negative) cell membranes. As to conditions: for Kd: LNCaP cell membranes, 2 h, 37 °C; for Specific Binding: total binding on LNCaP minus non-specific binding on PC3 membranes. The method, then: The equilibrium constant (KD) was determined by a saturation binding experiment performed in PSMA positive LNCaP and PSMA negative PC3 cell membranes isolated according to the procedure developed by Fichna et al.. The 50 mcL of LNCaP and PC3 cell membranes were seeded on special MultiScreen™ 96 well filter plates (Merck, Warsaw, Poland) and incubated for 2 h with increasing concentration of [^177Lu]Lu-PSMA-D4, [^90Y]Y-PSMA-D4, and […] (0.016–194 nM) at 37 °C. After incubation, the unbound radiocomplexes were filtered under vacuum, and the membranes were washed twice using PBS. The filters containing membranes with the attached radiotracer were extruded into tubes using MultiScreen Multile Punch (Merck). The number of associated inhibitors was determined by measuring the radioactivity of squeezed filters using Wallac Wizard 1470 γ counter. The KD and Bmax were calculated by nonlinear regression using the GraphPad Prism statistic program.

For a further data set, the system named is LNCaP tumor-bearing mice. As to conditions: 1 h p.i.v., cited from earlier work.
The mark [5] stands for this setting: 0.2 nmol, CD-1 nu/nu mice, ref 14.
Setting [6] is: 0.2 nmol, CD-1 nu/nu mice, ref 37.

T1 sequence (Q04609 whole entry): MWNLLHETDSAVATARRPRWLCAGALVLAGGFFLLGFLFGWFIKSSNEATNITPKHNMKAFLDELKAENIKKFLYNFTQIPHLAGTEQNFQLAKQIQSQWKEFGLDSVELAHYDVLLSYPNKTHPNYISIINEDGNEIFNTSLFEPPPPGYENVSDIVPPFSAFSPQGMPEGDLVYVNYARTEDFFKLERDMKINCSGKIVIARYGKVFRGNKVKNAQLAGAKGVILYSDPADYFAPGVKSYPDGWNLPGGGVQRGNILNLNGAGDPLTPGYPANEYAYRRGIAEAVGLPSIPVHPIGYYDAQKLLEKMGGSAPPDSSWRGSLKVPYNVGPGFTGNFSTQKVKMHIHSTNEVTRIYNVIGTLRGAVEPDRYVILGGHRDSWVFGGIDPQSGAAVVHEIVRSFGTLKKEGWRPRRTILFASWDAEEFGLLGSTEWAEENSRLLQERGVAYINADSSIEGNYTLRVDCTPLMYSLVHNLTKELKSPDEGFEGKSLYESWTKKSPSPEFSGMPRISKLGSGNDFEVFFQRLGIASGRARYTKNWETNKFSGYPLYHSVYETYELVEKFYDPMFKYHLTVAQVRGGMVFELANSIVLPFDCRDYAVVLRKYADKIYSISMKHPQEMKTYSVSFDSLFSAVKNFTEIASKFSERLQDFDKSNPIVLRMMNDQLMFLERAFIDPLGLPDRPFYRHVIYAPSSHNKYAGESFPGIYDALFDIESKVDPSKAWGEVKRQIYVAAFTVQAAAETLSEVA

In general, IC50 refers to the midpoint of a concentration-inhibition curve. `O=C(O)CCc1ccc(O)c(CN(CCN(CC(=O)O)Cc2cc(CCC(=O)NCCCCCC(=O)NCCCC[C@H](NC(=O)N[C@@H](CCC(=O)O)C(=O)O)C(=O)O)ccc2O)CC(=O)O)c1` [PSMA-11, reference compound] returned an IC50 on PSMA antigen [1] of 84.5 ± 26.5 nM. Also, the Internalization with LNCaP cells amounted to 2.6%.
Take `O=C([O-])CN1CCN(CC(=O)[O-])CCN(CC(=O)NCC2CCC(C(=O)NC(Cc3ccc4ccccc4c3)C(=O)NCCCCC(NC(=O)NC(CCC(=O)O)C(=O)O)C(=O)O)CC2)CCN(CC(=O)[O-])CC1.[225Ac+3]` (centres unmarked) [PSMA-617 labeled with actinium-225]: in the data set with mCRPC patients, the hematologic toxicity result is given as “extremely low hematologic toxicity” and the “patients with prostate-specific antigen (PSA) response in terms of PSA decline” value was about 90%.
For `O=C(O)CC[C@H](NC(=O)N[C@@H](CCCCNC(=O)[C@H](Cc1ccc2ccccc2c1)NC(=O)[C@H]1CC[C@H](CNC(=O)CN2CCN(CC(=O)O)CCN(CC(=O)O)CCN(CC(=O)O)CC2)CC1)C(=O)O)C(=O)O` [PSMA-617, Glu-CO-Lys-2-naphthyl-L-Ala-cyclohexane-DOTA], the IC50 in the data set with PSMA was 2.7 ± 0.1 nM.
In turn, `O=C(O)CCC(NC(=O)NC(CCCCNC(=O)C(Cc1c[nH]c2ccccc12)NC(=O)C1CCC(CNC(=O)CN2CCN(CC(=O)O)CCN(CC(=O)O)CCN(CC(=O)O)CC2)CC1)C(=O)O)C(=O)O` [PSMA-D4, Glu-CO-Lys-L-Trp-4-Amc-DOTA] came in with an IC50 on PSMA antigen [1] of 28.7 ± 5.2 nM.
Regarding `O=C(O)CC[C@H](NC(=O)N[C@@H](CCCCNC(=O)CCCCCCC(=O)NCCCC[C@@H](NC(=O)[C@@H](Cc1ccccc1)NC(=O)[C@@H](Cc1ccc(O)c(I)c1)NC(=O)CCC(C(=O)O)N1CCN(CC(=O)O)CCN(CC(=O)O)CCN(CC(=O)O)CC1)C(=O)O)C(=O)O)C(=O)O` (some centres unmarked) [PSMA-I&T, Glu-CO-Lys[(Sub)DLys-DPhe-DTyr(3I)-DOTAGA]], the IC50 on PSMA antigen [1] is 61.1 ± 7.8 nM.
For `O=C([O-])CN1CCN(CC(=O)[O-])CCN(CC(=O)NCC2CCC(C(=O)NC(Cc3ccc4ccccc4c3)C(=O)NCCCCC(NC(=O)NC(CCC(=O)O)C(=O)O)C(=O)O)CC2)CCN(CC(=O)[O-])CC1.[47Sc+3]` (centres unmarked) [[^47Sc]Sc-PSMA-617], in data set [2], the kidneys is 5.97 ± 0.90 %ID g^−1, the spleen is recorded as 0.81 ± 0.34 %ID g^−1 and the tumor is 46.7 ± 4.36 %ID g^−1.
Broadly, the logD is the decadic logarithm of the distribution of all forms, ionised or not, between an organic phase and buffer at a given pH. A word on the Kd: it is the free concentration of one partner at which half of the binding sites on the other are occupied at equilibrium, for simple one-to-one binding. With `O=C([O-])CN(CCN(CC(=O)[O-])Cc1cc(CCC(=O)NCCCCCC(=O)NCCCC[C@H](NC(=O)N[C@@H](CCC(=O)O)C(=O)O)C(=O)O)ccc1[O-])Cc1cc(CCC(=O)O)ccc1[O-].[68Ga+3].[OH3+]` [[^68Ga]Ga-PSMA-11], the logD in data set [3] is reported as −3.46 ± 0.06. Moreover, in the data set on LNCaP cells, the Internalization was 2.6% and the “Total Binding” value is recorded as 13.1%. Besides, on PSMA antigen [4], binding was characterised by a dissociation constant (Kd) of 11.4 ± 7.1 nM and the “Specific Binding” value is recorded as 96.8 ± 2.7%. Also, the tumor with LNCaP tumor-bearing mice (dose n.d., Nude mice) was 7.28 ± 0.82 %ID g^−1. In addition, in data set [2], the kidneys is on record as 58.8 ± 7.62 %ID g^−1, the spleen is given as 2.18 ± 0.38 %ID g^−1 and the tumor is on record as 40.0 ± 2.55 %ID g^−1.
With `O=C([O-])CN1CCN(CC(=O)[O-])CCN(CC(=O)NCC2CCC(C(=O)NC(Cc3ccc4ccccc4c3)C(=O)NCCCCC(NC(=O)NC(CCC(=O)O)C(=O)O)C(=O)O)CC2)CCN(CC(=O)[O-])CC1.[68Ga+3]` (centres unmarked) [[^68Ga]Ga-PSMA-617], in data set [2], the kidneys is 3.48 ± 0.18 %ID g^−1, the spleen is given as 0.91 ± 0.14 %ID g^−1 and the tumor is on record as 55.8 ± 14.2 %ID g^−1.
In turn, `O=C([O-])CN1CCN(CC(=O)[O-])CCN(CC(=O)NCC2CCC(C(=O)NC(Cc3ccc4ccccc4c3)C(=O)NCCCCC(NC(=O)NC(CCC(=O)O)C(=O)O)C(=O)O)CC2)CCN(CC(=O)[O-])CC1.[90Y+3]` (centres unmarked) [[^90Y]Y-PSMA-617] gave a log distribution coefficient (logD) in data set [3] of −5.08 ± 0.13.
Compound `O=C([O-])CN1CCN(CC(=O)[O-])CCN(CC(=O)NCC2CCC(C(=O)NC(Cc3ccc4ccccc4c3)C(=O)NCCCCC(NC(=O)NC(CCC(=O)O)C(=O)O)C(=O)O)CC2)CCN(CC(=O)[O-])CC1.[177Lu+3]` (centres unmarked) [[^177Lu]Lu-PSMA-617] registered a logD in data set [3] of −5.12 ± 0.07. Moreover, in the data set on LNCaP cells, the Internalization was 35.4–38.9% and the “Total Binding” value is 10.2–16.8%. Besides, in the data set on LNCaP cells (listed as [^177Lu]Lu-PSMA 617), the Internalization is 38.9 ± 1.7% and the “Total Binding” value worked out at 12.8 ± 1.0%. Moreover, in data set [2], the kidneys was 3.97 ± 0.56 %ID g^−1, the spleen is recorded as 0.21 ± 0.03 %ID g^−1 and the tumor is 45.8 ± 4.02 %ID g^−1. For the same compound, the Kd at PSMA was 2 ± 0.3 nM.
In data set [3], `O=C([O-])CC[C@H](NC(=O)N[C@@H](CCCCNC(=O)CCCCCCC(=O)NCCCC[C@@H](NC(=O)[C@@H](Cc1ccccc1)NC(=O)[C@@H](Cc1ccc(O)c(I)c1)NC(=O)CC[C@H](C(=O)[O-])N1CCN(CC(=O)[O-])CCN(CC(=O)[O-])CCN(CC(=O)[O-])CC1)C(=O)[O-])C(=O)[O-])C(=O)[O-].[177Lu+3].[H+].[H+].[H+].[H+].[H+]` [[^177Lu]Lu-PSMA-I&T] returned a log distribution coefficient (logD) of −4.47 ± 0.14. Further, at PSMA antigen [4], binding was characterised by a dissociation constant (Kd) of 5.1 ± 2.6 nM and the “Specific Binding” value is given as 97.1 ± 2.9%. In the data set with LNCaP tumor-bearing mice (setting [5]), the kidneys is reported as 107.24 ± 15.61 %ID g^−1, the spleen was 5.85 ± 2.26 %ID g^−1 and the tumor is reported as 7.96 ± 1.76 %ID g^−1. For the same compound, in the data set with LNCaP tumor-bearing mice (setting [6]), the kidneys is 105.3 ± 15.8 %ID g^−1, the spleen is on record as 7.9 ± 2.6 %ID g^−1 and the tumor is on record as 8.0 ± 1.7 %ID g^−1.
